According to patent US20060069132A1, “Azolecarboxamide herbicides” (priority 2004, published 2006):

Legend:
barnyardgrass [1] = experiment: Test B pre-/postemergence herbicide test; type: in vivo, Echinochloa crus-galli
How it was run: (§1)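 Herbicidal effect was judged by eye on a 0–100 scale after plants stood 13 to 15 days in the greenhouse following pre- or postemergence treatment with surfactant-containing formulations.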

Surinam grass = experiment: Test B pre-/postemergence herbicide test; type: in vivo, Urochloa decumbens
How it was run: (§2)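 Test chemicals in a non-phytotoxic solvent mixture with surfactant were applied preemergence to seeded species and postemergence to plants 2-18 cm tall (1- to 4-leaf stage); rice and barnyardgrass were also tested in a flooded paddy at the 2-leaf stage. Visual rating versus controls after 13-15 days in greenhouse, scale 0 (no effect) to 100 (complete control).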

cocklebur = experiment: Test B pre-/postemergence herbicide test; type: in vivo, Xanthium strumarium
How it was run: as §1

corn = experiment: Test B pre-/postemergence herbicide test; type: in vivo, Zea mays
How it was run: as §2

large crabgrass = experiment: Test B pre-/postemergence herbicide test; type: in vivo, Digitaria sanguinalis
How it was run: as §2

giant foxtail = experiment: Test B pre-/postemergence herbicide test; type: in vivo, Setaria faberi
How it was run: as §2

lambsquarters = experiment: Test B pre-/postemergence herbicide test; type: in vivo, Chenopodium album
How it was run: as §2

morningglory = experiment: Test B pre-/postemergence herbicide test; type: in vivo, Ipomoea coccinea
How it was run: as §1

pigweed = experiment: Test B pre-/postemergence herbicide test; type: in vivo, Amaranthus retroflexus
How it was run: as §2

rice [2] = experiment: Test B pre-/postemergence herbicide test; type: in vivo, Oryza sativa; conditions: preemergence; for Plant response rating, Rice: 500 g ai/ha
How it was run: as §2

velvetleaf = experiment: Test B pre-/postemergence herbicide test; type: in vivo, Abutilon theophrasti
How it was run: as §2

blackgrass = experiment: Test B postemergence herbicide test; type: in vivo, Alopecurus myosuroides
How it was run: (§3)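 Treated at 2-leaf (paddy) or 1–4-leaf, 2–18 cm (postemergence); greenhouse 13–15 d; visual score vs control, 0 none to 100 complete control; dash = not tested.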

wheat = experiment: Test B postemergence herbicide test; type: in vivo, Triticum aestivum; set-up: key to Wheat plant response rating: 0 = no effect, 100 = complete control
How it was run: (§4)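 After treating 2-leaf paddy plants or 2–18 cm postemergence plants (1 to 4 leaves) with formulated chemical, researchers kept them in a greenhouse for 13–15 days. Effects were judged visually versus controls: 0 indicates none, 100 total control.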

wild oat = experiment: Test B postemergence herbicide test; type: in vivo, Avena fatua
How it was run: as §4

rice [3] = experiment: Test B flooded paddy test; type: in vivo, Oryza sativa; conditions: 1000 g ai/ha, scale 0 to 100 (0 no effect, 100 complete control)
How it was run: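 Paddy species grown to the 2-leaf stage under flooding; blackgrass sprayed postemergence at 2–18 cm (1- to 4-leaf stage). Plants kept in a greenhouse for 13 to 15 days, then visually rated against controls on 0 (no effect) to 100 (complete control).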

[4] = system: small flower umbrella sedge; experiment: Test B flooded paddy test; type: in vivo, Cyperus difformis; conditions: 1000 g ai/ha, scale 0 to 100 (0 no effect, 100 complete control)
How it was run: as §3

ducksalad = experiment: Test B flooded paddy test; type: in vivo, Heteranthera limosa; conditions: 1000 g ai/ha, scale 0 to 100 (0 no effect, 100 complete control)
How it was run: as §3

barnyardgrass [5] = experiment: Test B flooded paddy test; type: in vivo, Echinochloa crus-galli; conditions: 1000 g ai/ha, scale 0 to 100 (0 no effect, 100 complete control)
How it was run: as §3

[6] = 125 g ai/ha; 0 = no effect, 100 = complete control; preemergence
[7] = 500 g ai/ha; visual rating 0-100, 0 no effect, 100 complete control; preemergence
[8] = postemergence, 125 g ai/ha; visual rating, scale 0 (no effect) to 100 (complete control)
[9] = postemergence, 500 g ai/ha; visual rating, scale 0 (no effect) to 100 (complete control)
[10] = 125 g ai/ha; 0 is no effect, 100 is complete control; preemergence
[11] = 125 g ai/ha; visual rating, scale 0 (no effect) to 100 (complete control); postemergence
[12] = 500 g ai/ha; visual rating, 0 = no effect, 100 = complete control; preemergence
[13] = postemergence, 500 g ai/ha; scale 0 to 100, 0 is no effect, 100 is complete control

CCCc1nn(C(C)(C)C)cc1C(=O)Nc1cccc(C(=O)N(CC)CC)c1 [Compound 185]
100: Plant response rating, Pigweed (pigweed; [7])
30: Barnyardgrass plant response rating (barnyardgrass [1]; [8]) | Surinam Grass plant response rating (Surinam grass; [9]) | Corn plant response rating (corn; [9]) | Foxtail, Giant plant response rating (giant foxtail; [9]) | Velvetleaf plant response rating (velvetleaf; [8]) | Oat, Wild plant response rating (wild oat; [9])
10: Surinam Grass plant response rating (0 to 100 scale) (Surinam grass; [6]) | Velvetleaf plant response rating (0 to 100 scale) (velvetleaf; [6]) | Wheat plant response rating (wheat; [9]) | Oat, Wild plant response rating (wild oat; [8])
0: Barnyardgrass plant response rating (0 to 100 scale) (barnyardgrass [1]; [6]) | Cocklebur plant response rating (0 to 100 scale) (cocklebur; [6]) | Plant response rating, Cocklebur (cocklebur; [7]) | Corn plant response rating (0 to 100 scale) (corn; [6]) | Plant response rating, Corn (corn; [7]) | Crabgrass, Large plant response rating (0 to 100 scale) (large crabgrass; [6]) | Foxtail, Giant plant response rating (0 to 100 scale) (giant foxtail; [6]) | Morningglory plant response rating (0 to 100 scale) (morningglory; [6]) | Pigweed plant response rating (0 to 100 scale) (pigweed; [6]) | Rice plant response rating (0 to 100 scale) (rice [2]; 125 g ai/ha, 0 = no effect, 100 = complete control) | Plant response rating, Rice (rice [2]; visual rating 0-100, 0 no effect, 100 complete control) | Blackgrass plant response rating (blackgrass; [8]) | Blackgrass plant response rating (blackgrass; [9]) | Wheat plant response rating (wheat; [8]) | Rice plant response rating (rice [3]; visual rating, 13 to 15 days) | Ducksalad plant response rating (ducksalad; visual rating, 13 to 15 days) | Barnyardgrass plant response rating (barnyardgrass [5]; visual rating, 13 to 15 days)
40: Crabgrass, Large plant response rating (large crabgrass; [9]) | Morningglory plant response rating (morningglory; [8])
20: Plant response rating, Surinam Grass (Surinam grass; [7]) | Surinam Grass plant response rating (Surinam grass; [8]) | Cocklebur plant response rating (cocklebur; [8]) | Corn plant response rating (corn; [8]) | Crabgrass, Large plant response rating (large crabgrass; [8]) | Foxtail, Giant plant response rating (giant foxtail; [8]) | Lambsquarters plant response rating (0 to 100 scale) (lambsquarters; [6])
60: Lambsquarters plant response rating (lambsquarters; [8]) | Pigweed plant response rating (pigweed; [8]) | Sedge, Umbrella plant response rating ([4]; visual rating, 13 to 15 days)
70: Plant response rating, Barnyardgrass (barnyardgrass [1]; [7]) | Plant response rating, Foxtail, Giant (giant foxtail; [7]) | Lambsquarters plant response rating (lambsquarters; [9]) | Morningglory plant response rating (morningglory; [9])
80: Plant response rating, Lambsquarters (lambsquarters; [7]) | Pigweed plant response rating (pigweed; [9])
50: Barnyardgrass plant response rating (barnyardgrass [1]; [9]) | Cocklebur plant response rating (cocklebur; [9]) | Plant response rating, Crabgrass, Large (large crabgrass; [7]) | Plant response rating, Morningglory (morningglory; [7]) | Plant response rating, Velvetleaf (velvetleaf; [7]) | Velvetleaf plant response rating (velvetleaf; [9])

CCNC(=O)c1cccc(NC(=O)c2cc(C(C)(C)C)n[nH]2)c1 [Compound 351]
10: Corn plant response rating (corn; [13]) | Crabgrass, Large plant response rating (large crabgrass; [13]) | Lambsquarters plant response rating (lambsquarters; [13])
50: Pigweed plant response rating (pigweed; [13])
0: Plant response rating (0 to 100 scale), Barnyardgrass (barnyardgrass [1]; [10]) | Barnyardgrass plant response rating (barnyardgrass [1]; [11]) | Plant response rating, Barnyardgrass (barnyardgrass [1]; [12]) | Barnyardgrass plant response rating (barnyardgrass [1]; [13]) | Plant response rating (0 to 100 scale), Surinam Grass (Surinam grass; [10]) | Surinam Grass plant response rating (Surinam grass; [11]) | Plant response rating, Surinam Grass (Surinam grass; [12]) | Surinam Grass plant response rating (Surinam grass; [13]) | Plant response rating (0 to 100 scale), Cocklebur (cocklebur; [10]) | Cocklebur plant response rating (cocklebur; [11]) | Plant response rating, Cocklebur (cocklebur; [12]) | Cocklebur plant response rating (cocklebur; [13]) | Plant response rating (0 to 100 scale), Corn (corn; [10]) | Corn plant response rating (corn; [11]) | Plant response rating, Corn (corn; [12]) | Plant response rating (0 to 100 scale), Crabgrass, Large (large crabgrass; [10]) | Crabgrass, Large plant response rating (large crabgrass; [11]) | Plant response rating, Crabgrass, Large (large crabgrass; [12]) | Plant response rating (0 to 100 scale), Foxtail, Giant (giant foxtail; [10]) | Foxtail, Giant plant response rating (giant foxtail; [11]) | Plant response rating, Foxtail, Giant (giant foxtail; [12]) | Foxtail, Giant plant response rating (giant foxtail; [13]) | Plant response rating (0 to 100 scale), Lambsquarters (lambsquarters; [10]) | Lambsquarters plant response rating (lambsquarters; [11]) | Plant response rating, Lambsquarters (lambsquarters; [12]) | Plant response rating (0 to 100 scale), Morningglory (morningglory; [10]) | Morningglory plant response rating (morningglory; [11]) | Plant response rating, Morningglory (morningglory; [12]) | Morningglory plant response rating (morningglory; [13]) | Plant response rating (0 to 100 scale), Pigweed (pigweed; [10]) | Pigweed plant response rating (pigweed; [11]) | Plant response rating, Pigweed (pigweed; [12]) | Plant response rating (0 to 100 scale), Rice (rice [2]; 125 g ai/ha, 0 is no effect, 100 is complete control) | Plant response rating, Rice (rice [2]; visual rating, 0 = no effect, 100 = complete control) | Plant response rating (0 to 100 scale), Velvetleaf (velvetleaf; [10]) | Velvetleaf plant response rating (velvetleaf; [11]) | Velvetleaf plant response rating (velvetleaf; [13]) | Blackgrass plant response rating (blackgrass; [11]) | Blackgrass plant response rating (blackgrass; [13]) | Wheat plant response rating (wheat; [11]) | Wheat plant response rating (wheat; [13]) | Oat, Wild plant response rating (wild oat; [11]) | Oat, Wild plant response rating (wild oat; [13]) | Rice plant response rating (rice [3]) | Sedge, Umbrella plant response rating [4] | Ducksalad plant response rating (ducksalad) | Barnyardgrass plant response rating (barnyardgrass [5])
